Measurements reported in BindingDB's records for doi:10.1016/j.bmcl.2006.08.060 (Lucknow University, 2006).

Tested on: Enterococcus faecalis
Assay: Antibacterial activity against Streptococcus faecalis by broth microdilution technique

- IC50: 445 nM
SMILES: CNC(C)[C@@H]1CC[C@@H](N)[C@@H](O[C@H]2[C@H](O)[C@@H](O[C@H]3OC[C@](C)(O)[C@H](NC)[C@H]3O)[C@H](N)C[C@@H]2N)O1 (stereo partly specified) [Gentamicin]
